PubChem BioAssay AID2060899 (Molecular Pharmacology Branch, DTP, NCI, 2025)
Each block holds one molecule with its values, some of them ahead of it.

Tested on: 565726-208-R1-J5-PDC complex spheroids, growth inhibition
Test: Anticancer human tumor 565726-208-R1-J5-PDC patient-derived pancreatic adenocarcinoma cell line growth inhibition [RAS]
Details: for IC50: curve of first compound; for viability, T/C: stronger effect = lower value
Procedure, shortened: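 Tumour cells grown as complex spheroids with HUVEC endothelial cells and mesenchymal stem cells, treated with RAS pathway inhibitor combinations. Each agent spans half-log steps from near clinical Cmax, or 10 microM where Cmax is unknown.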

[1] = second compound 0.000949 µM, first compound 0.0316 µM
[2] = second compound 0.000949 µM, first compound 0.1 µM
[3] = second compound 0.000949 µM, first compound 0.316 µM
[4] = second compound 0.000949 µM, first compound 1 µM
[5] = second compound 0.003 µM, first compound 0.0316 µM
[6] = second compound 0.003 µM, first compound 0.1 µM
[7] = second compound 0.003 µM, first compound 0.316 µM
[8] = second compound 0.003 µM, first compound 1 µM
[9] = second compound 0.00949 µM, first compound 0.0316 µM
[10] = second compound 0.00949 µM, first compound 0.1 µM
[11] = second compound 0.00949 µM, first compound 0.316 µM
[12] = second compound 0.00949 µM, first compound 1 µM
[13] = second compound 0.03 µM, first compound 0.0316 µM
[14] = second compound 0.03 µM, first compound 0.1 µM
[15] = second compound 0.03 µM, first compound 0.316 µM
[16] = second compound 0.03 µM, first compound 1 µM
[17] = second compound 0.0949 µM, first compound 0.0316 µM
[18] = second compound 0.0949 µM, first compound 0.1 µM
[19] = second compound 0.0949 µM, first compound 0.316 µM
[20] = second compound 0.0949 µM, first compound 1 µM
[21] = second compound 0.3 µM, first compound 0.0316 µM
[22] = second compound 0.3 µM, first compound 0.1 µM
[23] = second compound 0.3 µM, first compound 0.316 µM
[24] = second compound 0.3 µM, first compound 1 µM
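Further: spheroids exposed to compounds for seven days before readout.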
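Wherever viability, T/C is given: 100% = DMSO vehicle control viability.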

- IC50 (second compound 0.000949 µM): > 1000 nM
- IC50 (second compound 0.003 µM): > 1000 nM
- IC50 (second compound 0.00949 µM): > 1000 nM
- IC50 (second compound 0.03 µM): > 1000 nM
- IC50 (second compound 0.0949 µM): > 1000 nM
- IC50 (second compound 0.3 µM): > 1000 nM
SMILES: C=CC(=O)N1CCN(c2nc(OCC3CCCN3C)nc3c(F)c(-c4nc(N)cc(C)c4C(F)(F)F)c(Cl)cc23)C(C)C1 (stereo unspecified) + CCn1c(-c2cccnc2C(C)OC)c2c3cc(ccc31)N1CCOC(CC(NC(=O)C(C(C)C)N(C)C(=O)C3(F)CCN(C(=O)C#CC(C)(C)N(C)C)CC3)C(=O)N3CCCC(N3)C(=O)OCC(C)(C)C2)C1
- viability, T/C (second compound 0.000949 µM, first compound 0.00316 µM): 99.3%
- viability, T/C (second compound 0.000949 µM, first compound 0.01 µM): 98.6%
- viability, T/C [1]: 108%
- viability, T/C [2]: 111%
- viability, T/C [3]: 97%
- viability, T/C [4]: 102%
- viability, T/C (second compound 0.003 µM, first compound 0.00316 µM): 103%
- viability, T/C (second compound 0.003 µM, first compound 0.01 µM): 109%
- viability, T/C [5]: 105%
- viability, T/C [6]: 93.6%
- viability, T/C [7]: 96.9%
- viability, T/C [8]: 103%
- viability, T/C (second compound 0.00949 µM, first compound 0.00316 µM): 106%
- viability, T/C (second compound 0.00949 µM, first compound 0.01 µM): 112%
- viability, T/C [9]: 104%
- viability, T/C [10]: 107%
- viability, T/C [11]: 96.8%
- viability, T/C [12]: 100%
- viability, T/C (second compound 0.03 µM, first compound 0.00316 µM): 99.3%
- viability, T/C (second compound 0.03 µM, first compound 0.01 µM): 97.7%
- viability, T/C [13]: 111%
- viability, T/C [14]: 98.7%
- viability, T/C [15]: 98.6%
- viability, T/C [16]: 104%
- viability, T/C (second compound 0.0949 µM, first compound 0.00316 µM): 97.1%
- viability, T/C (second compound 0.0949 µM, first compound 0.01 µM): 109%
- viability, T/C [17]: 109%
- viability, T/C [18]: 94.8%
- viability, T/C [19]: 100%
- viability, T/C [20]: 94.5%
- viability, T/C (second compound 0.3 µM, first compound 0.00316 µM): 93.7%
- viability, T/C (second compound 0.3 µM, first compound 0.01 µM): 79%
- viability, T/C [21]: 96.7%
- viability, T/C [22]: 95.4%
- viability, T/C [23]: 90.3%
- viability, T/C [24]: 85.3%

- IC50 (second compound 0.000949 µM): < 31.6 nM
- IC50 (second compound 0.003 µM): < 31.6 nM
- IC50 (second compound 0.00949 µM): < 31.6 nM
- IC50 (second compound 0.03 µM): < 31.6 nM
- IC50 (second compound 0.0949 µM): < 31.6 nM
- IC50 (second compound 0.3 µM): < 31.6 nM
SMILES: CC(=O)OC12COC1CC(O)C1(C)C(=O)C(O)C3=C(C)C(OC(=O)C(O)C(NC(=O)OC(C)(C)C)c4ccccc4)CC(O)(C(OC(=O)c4ccccc4)C21)C3(C)C (stereo unspecified) + CCn1c(-c2cccnc2C(C)OC)c2c3cc(ccc31)N1CCOC(CC(NC(=O)C(C(C)C)N(C)C(=O)C3(F)CCN(C(=O)C#CC(C)(C)N(C)C)CC3)C(=O)N3CCCC(N3)C(=O)OCC(C)(C)C2)C1
- viability, T/C [1]: 15.9%
- viability, T/C [2]: 14.2%
- viability, T/C [3]: 15.5%
- viability, T/C [4]: 16.5%
- viability, T/C (second compound 0.000949 µM, first compound 3.16 µM): 19.8%
- viability, T/C (second compound 0.000949 µM, first compound 10 µM): 21.5%
- viability, T/C [5]: 17.4%
- viability, T/C [6]: 16.5%
- viability, T/C [7]: 16.2%
- viability, T/C [8]: 14.6%
- viability, T/C (second compound 0.003 µM, first compound 3.16 µM): 19.8%
- viability, T/C (second compound 0.003 µM, first compound 10 µM): 22.8%
- viability, T/C [9]: 17.3%
- viability, T/C [10]: 15.3%
- viability, T/C [11]: 15.9%
- viability, T/C [12]: 15.7%
- viability, T/C (second compound 0.00949 µM, first compound 3.16 µM): 20.1%
- viability, T/C (second compound 0.00949 µM, first compound 10 µM): 22.8%
- viability, T/C [13]: 16.3%
- viability, T/C [14]: 16.2%
- viability, T/C [15]: 15%
- viability, T/C [16]: 17%
- viability, T/C (second compound 0.03 µM, first compound 3.16 µM): 21.6%
- viability, T/C (second compound 0.03 µM, first compound 10 µM): 25.4%
- viability, T/C [17]: 15.3%
- viability, T/C [18]: 14.8%
- viability, T/C [19]: 13.2%
- viability, T/C [20]: 15.3%
- viability, T/C (second compound 0.0949 µM, first compound 3.16 µM): 20.2%
- viability, T/C (second compound 0.0949 µM, first compound 10 µM): 24.3%
- viability, T/C [21]: 14.9%
- viability, T/C [22]: 15.8%
- viability, T/C [23]: 14.4%
- viability, T/C [24]: 13.9%
- viability, T/C (second compound 0.3 µM, first compound 3.16 µM): 17.6%
- viability, T/C (second compound 0.3 µM, first compound 10 µM): 26.2%

- IC50 (second compound 0.000949 µM): 2.34 nM
- IC50 (second compound 0.003 µM): 2.11 nM
- IC50 (second compound 0.00949 µM): 2.33 nM
- IC50 (second compound 0.03 µM): 2.06 nM
- IC50 (second compound 0.0949 µM): 1.98 nM
- IC50 (second compound 0.3 µM): 1.64 nM
SMILES: CCc1c2c(nc3ccc(O)cc13)-c1cc3c(c(=O)n1C2)COC(=O)[C@]3(O)CC + CCn1c(-c2cccnc2C(C)OC)c2c3cc(ccc31)N1CCOC(CC(NC(=O)C(C(C)C)N(C)C(=O)C3(F)CCN(C(=O)C#CC(C)(C)N(C)C)CC3)C(=O)N3CCCC(N3)C(=O)OCC(C)(C)C2)C1
- viability, T/C (second compound 0.000949 µM, first compound 0.000949 µM): 79.2%
- viability, T/C (second compound 0.000949 µM, first compound 0.003 µM): 39.5%
- viability, T/C (second compound 0.000949 µM, first compound 0.00949 µM): 25.5%
- viability, T/C (second compound 0.000949 µM, first compound 0.03 µM): 14.4%
- viability, T/C (second compound 0.000949 µM, first compound 0.0949 µM): 8.88%
- viability, T/C (second compound 0.000949 µM, first compound 0.3 µM): 4.44%
- viability, T/C (second compound 0.003 µM, first compound 0.000949 µM): 80.3%
- viability, T/C (second compound 0.003 µM, first compound 0.003 µM): 33.2%
- viability, T/C (second compound 0.003 µM, first compound 0.00949 µM): 23.6%
- viability, T/C (second compound 0.003 µM, first compound 0.03 µM): 15.5%
- viability, T/C (second compound 0.003 µM, first compound 0.0949 µM): 10.2%
- viability, T/C (second compound 0.003 µM, first compound 0.3 µM): 5.03%
- viability, T/C (second compound 0.00949 µM, first compound 0.000949 µM): 79%
- viability, T/C (second compound 0.00949 µM, first compound 0.003 µM): 38.5%
- viability, T/C (second compound 0.00949 µM, first compound 0.00949 µM): 27%
- viability, T/C (second compound 0.00949 µM, first compound 0.03 µM): 13.2%
- viability, T/C (second compound 0.00949 µM, first compound 0.0949 µM): 8.85%
- viability, T/C (second compound 0.00949 µM, first compound 0.3 µM): 4.19%
- viability, T/C (second compound 0.03 µM, first compound 0.000949 µM): 75.5%
- viability, T/C (second compound 0.03 µM, first compound 0.003 µM): 34.5%
- viability, T/C (second compound 0.03 µM, first compound 0.00949 µM): 23.8%
- viability, T/C (second compound 0.03 µM, first compound 0.03 µM): 13.5%
- viability, T/C (second compound 0.03 µM, first compound 0.0949 µM): 8.23%
- viability, T/C (second compound 0.03 µM, first compound 0.3 µM): 3.69%
- viability, T/C (second compound 0.0949 µM, first compound 0.000949 µM): 73.3%
- viability, T/C (second compound 0.0949 µM, first compound 0.003 µM): 35.2%
- viability, T/C (second compound 0.0949 µM, first compound 0.00949 µM): 20.5%
- viability, T/C (second compound 0.0949 µM, first compound 0.03 µM): 11.1%
- viability, T/C (second compound 0.0949 µM, first compound 0.0949 µM): 6%
- viability, T/C (second compound 0.0949 µM, first compound 0.3 µM): 2.81%
- viability, T/C (second compound 0.3 µM, first compound 0.000949 µM): 67.1%
- viability, T/C (second compound 0.3 µM, first compound 0.003 µM): 30%
- viability, T/C (second compound 0.3 µM, first compound 0.00949 µM): 16.7%
- viability, T/C (second compound 0.3 µM, first compound 0.03 µM): 8.71%
- viability, T/C (second compound 0.3 µM, first compound 0.0949 µM): 5.1%
- viability, T/C (second compound 0.3 µM, first compound 0.3 µM): 2.77%
